According to US12312333B2, “SK channel positive allosteric modulators” (Chapman University, priority 2021, dated 2025):
“Also recorded” adds a separate entry of the source.

Experiments:
rat KCa2.2a [1] = target: T1, rat KCa2.2a (UniProt P0DP23+P70604); assay: Inside-out patch-clamp potentiation of KCa2.2a channels expressed in HEK293 cells; format: cell-based; conditions: for Emax: current at −90 mV at maximal compound concentration normalized to 10 μM Ca2+, read-out: Emax on KCa2.2a channels (I/Imax); for EC50: HEK293, 0.15 μM Ca2+, current at −90 mV, read-out: EC50 (mean ± SEM, μM) on potentiating KCa2.2a channels; for efficacy (Emax) on KCa2.2a channels: normalized to 10 μM Ca2+
T1 construct: expressed in transfected cells; host or cells: HEK293
Procedure: The impact of adding one substituent group at C4 of the cyclohexane moiety of CyPPA with either electron donating (OH (2a), NH2 (2b), CH2OH (2c), and OCH3 (2d)) or electron-withdrawing groups (F (2e) and NO2 (2f)) was explored. The potency of the newly synthesized compounds compared to the template CyPPA was measured via inside-out patch clamp electrophysiology recordings with KCa2.2a channels heterologously expressed in HEK293 cells (FIG. 1A). […] The responses induced by 10 μM Ca^2+ are considered the maximal currents of the KCa2.2a channels. To evaluate the efficacy (Emax) of compounds on KCa2.2a channels, the current amplitudes at −90 mV in response to the maximal concentration of compounds were normalized to that obtained at 10 μM Ca^2+ (I/Imax (%), FIG. 1C).
The effect of newly synthesized compounds on the KCa2.x/KCa3.1 channels was investigated as previously described (Nam, Y. W.; et al, Acta Physiol (Oxf) 2020, e13552; Nam, Y. W.; et al. Scientific reports 2018, 8 (1), 10749). Briefly, the rat KCa2.2a, human KCa2.1, human KCa2.3 or human KCa3.1 channels cDNA constructs were either generated in-house or through molecular cloning services (Genscript). The channel cDNAs, along with CaM and GFP, at a ratio of 7:4:2 (ORF ratios), were transfected into HEK293 cells by the calcium-phosphate method. KCa currents were recorded 1-2 days after transfection, with an Axon200B amplifier (Molecular Devices) at room temperature. The resistance of the patch electrodes ranged from 3-5 MΩ. The pipette solution contained (in mM): 140 KCl, 10 Hepes (pH 7.4), 1 MgSO4. The bath solution containing (in mM): 140 KCl, 10 Hepes (pH 7.2), 1 EGTA, 0.1 Dibromo-BAPTA, and 1 HEDTA was mixed with Ca^2+ to obtain the desired free Ca^2+ concentrations, calculated using the software by Chris Patton of Stanford University (https://somapp.ucdmc.ucdavis.edu/pharmacology/bers/maxchelator/webmaxc/webmaxcS.htm). The Ca^2+ concentrations were verified using a Ca^2+ calibration buffer kit (Thermo Fisher Scientific). Briefly, a standard curve was generated using the Ca^2+ buffers from the kit and a fluorescence Ca^2+ indicator. Then, the Ca^2+ concentrations of the bath solution were determined through interpolation on the standard curve.
High resistance seals (>1 GΩ) were formed before inside-out patches were obtained. The seal resistance of inside-out patches was >1 GΩ, when the intracellular face was initially exposed to a zero-Ca^2+ bath solution. Currents were recorded by repetitive 1-s-voltage ramps from −100 mV to +100 mV from a holding potential of 0 mV. The currents were filtered at 2 kHz and digitized at a sampling frequency of 10 kHz. At the end of experiment, the integrity of the patch was examined by switching the bath solution back to the zero-Ca^2+ buffer. Data from patches, which maintained the seal resistance (>1 GΩ) after solution changes, were used for further analysis.
To measure the effect of CyPPA (Alomone Labs) and newly synthesized compounds, the intracellular face was exposed to bath solutions with 0.15 μM Ca^2+. One minute after switching of bath solutions, ten sweeps with a 1-s interval were recorded at a series of concentrations of compound in the presence of 0.15 μM Ca^2+. The maximal KCa2.x/KCa3.1 current in response to 10 μM Ca^2+ was then recorded.
Patch-clamp recordings were analyzed using Clampfit 10.5 (Molecular Devices LLC) and concentration-response curves were analyzed in GraphPad Prism 9.0.2 (GraphPad Software Inc.). To construct the concentration-dependent potentiation of channel activities by compound, the current amplitudes at −90 mV in response to various concentrations of the compound were normalized to that obtained at a maximal concentration of compound. The normalized currents were plotted as a function of the concentrations of the compound. EC50 values and Hill coefficients were determined by fitting the data points to a standard concentration-response curve (Y=100/(1+(X/EC50)^−Hill)). […]

[2] = Solubility noted during patch-clamp concentration-response; format: physicochemical; conditions: bath solution, 200 μM
rat KCa2.2a [3] = target: T1, rat KCa2.2a; conditions: KCa2.2/KCa2.3 vs KCa2.1/KCa3.1; cited from earlier work
human KCa2.3 channels = target: T2, human KCa2.3 channels (Homo sapiens, UniProt P0DP23+Q9UGI6); conditions: cited from earlier work
T2 construct: expressed in transfected cells; host or cells: HEK293

Question: With `Cc1cc(Nc2cc(C(=O)O)ccc2F)nc(-n2nc(C)cc2C)n1` [Compound 2v, 3-((2-(3,5-Dimethyl-1H-pyrazol-1-yl)-6-methylpyrimidin-4-yl)amino)-4-fluorobenzoic acid] as the compound, how does the Emax (rat KCa2.2a [1]; HEK293) read?
Answer: 50 ± 5.78%

Question: What about the EC50 (rat KCa2.2a [1]; inside-out patch) of the same compound?
Answer: 37.6 ± 3.66 µM

Question: What about the “efficacy (Emax) on KCa2.2a channels” value (rat KCa2.2a [1]) of the same compound?
Answer: reduced efficacy

Question: What about the “solubility” value [2] of the same compound?
Answer: limited solubility at 200 μM

Question: For `Cc1cc(NC2CCCCC2)nc(-n2nc(C)cc2C)n1` [CyPPA, N-cyclohexyl-2-(3,5-dimethyl-1H-pyrazol-1-yl)-6-methylpyrimidin-4-amine], which “subtype selectivity, previously reported” value (rat KCa2.2a [3]) is on record?
Answer: selectively potentiates KCa2.2a and KCa2.3, but not KCa2.1 and KCa3.1 channel subtypes; also recorded: potentiate the KCa2.2 and KCa2.3, but not the KCa2.1 and KCa3.1 channel subtypes

Question: And the Emax (rat KCa2.2a [1]; HEK293)?
Answer: 82.4 ± 4.91%

Question: And the EC50 (rat KCa2.2a [1]; inside-out patch)?
Answer: 7.48 ± 0.56 µM

Question: What about the “potency on KCa2.3 compared to KCa2.2a channels, background statement” value (human KCa2.3 channels) of the same compound?
Answer: slightly but significantly higher potency on KCa2.3 channels than KCa2.2a channels

Question: With “N^1-(3-Chloro-4-fluorophenyl)-2-(3,5-dimethyl-1H-pyrazol-1-yl)pyrimidine-4,6-diamine [Compound 4]” as the compound, how does the “activity / potency on KCa2.2a channels” value (rat KCa2.2a [1]; inside-out patch, HEK293) read?
Answer: reduced potency

Question: And the EC50 (rat KCa2.2a [1]; inside-out patch)?
Answer: 6.59 ± 0.64 µM

Question: What about the “efficacy (Emax) on KCa2.2a channels” value (rat KCa2.2a [1]) of the same compound?
Answer: retaining their efficacy

Question: For “N^1-(3-Chloro-4-fluorophenyl)-6-(3,5-dimethyl-1H-pyrazol-1-yl)pyrimidine-2,4-diamine [Compound 3b]”, which EC50 (rat KCa2.2a [1]; inside-out patch) is on record?
Answer: > 100 µM

Question: For “N^1-(3-Chlorophenyl)-6-(3,5-dimethyl-1H-pyrazol-1-yl)pyrimidine-2,4-diamine [Compound 3a]”, which EC50 (rat KCa2.2a [1]; inside-out patch) is on record?
Answer: > 100 µM

Question: Which EC50 (rat KCa2.2a [1]; inside-out patch) does the source give for “N^1-(4-Chloro-2-fluorophenyl)-6-(3,5-dimethyl-1H-pyrazol-1-yl)pyrimidine-2,4-diamine [Compound 3d]” here?
Answer: > 100 µM

Question: With “N^1-(5-Chloro-2-fluorophenyl)-6-(3,5-dimethyl-1H-pyrazol-1-yl)pyrimidine-2,4-diamine [Compound 3c]” as the compound, how does the EC50 (rat KCa2.2a [1]; inside-out patch) read?
Answer: > 100 µM
